Measurements as given in US20050148614A1 (priority 1997, published 2005).

How the values were obtained:
[1] = test system: amnesia induced by the injection of vincristine; details: vincristine-lesioned rats; as described in EP 655247; cited from earlier work
[2] = test system: amnesia induced by the injection of vincristine; test: Evaluation test of the social memory in the rat after lesions caused by injection of vincristine; type: in vivo; details: vincristine-lesioned rats
Protocol: In this model, the effects are evaluated of the products tested on amnesia induced by the injection of vincristine which induces biochemical alterations similar to the changes present in Alzheimer's disease.
The procedures used in this model, lesions caused by vincristine as well as the evaluation of the social memory are described in EP 655247.
Evaluation Test of the Social Memory in the Rat.
The dose of 1 mg/kg i.p. of tacrine is then administered to the two groups of rats.

Compound	efficacious dose (functional recovery of memory) [1]	functional recovery in terms of memory ([2]; SR 57746A alone at 5 mg/kg p.o.)	recovery of memory ([2]; solvent then tacrine 1 mg/kg i.p. (control group))
Cl.FC(F)(F)c1cccc(C2=CCN(CCc3ccc4ccccc4c3)CC2)c1 [SR 57746A, 1-(2-naphth-2-ylethyl)-4-(3-trifluoromethylphenyl)-1,2,3,6-tetrahydropyridine hydrochloride]	10 mg/kg	insufficient to permit functional recovery in terms of memory	
Nc1c2c(nc3ccccc13)CCCC2 [tacrine, reference compound]			no recovery of memory
